Experimental findings from ChEMBL document CHEMBL1201862, “PubChem BioAssay data set” (2004) are described below.

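Values below derive from 48-hour exposures of cells grown in 96-well plates, with endpoints linearly interpolated between the two concentrations bracketing the appropriate inhibition level. GI50: concentration for 50% inhibition of growth.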 Active and inactive are the calls of the source. Cut-off read from the data, not from the text of the source: active = GI50 up to about 1.1 µM and inactive = higher. Some results are limits rather than exact numbers.

Experiment in all cases: NCI tumour cell line growth inhibition, 48 h
Assay [1] concerns 786-0.
Assay [2] relates to ACHN.
Assay [3] concerns CAKI-1.
Assay [4] has as its system CCRF-CEM.
Assay [5] relates to HCT-116.
The test system of assay [6] is HCT-15.
The subject of assay [7] is HOP-62.
The test system of assay [8] is K562.
For assay [9], the system named is LOX IMVI.
The test system of assay [10] is MOLT-4.
For assay [11], the system named is NCI-H23.
For assay [12], the system named is NCI-H460.
Assay [13] concerns OVCAR-3.
For assay [14], the system named is OVCAR-8.
Assay [15] concerns RXF 393.
Assay [16] relates to SF-295.
Assay [17] relates to SN12C.
For assay [18], the system named is SNB-19.
In assay [19] the test system is TK-10.
For assay [20], the system named is UACC-257.

As for `C[N+](C)(C)c1ncnc2c1ncn2C1CC(O)C(CO)O1` (stereo not given), the GI50 in assay [1] is > 100 µM (inactive); in [2] it was > 100 µM (inactive); in [3], > 100 µM (inactive); in [4], > 100 µM (inactive); in assay [5], > 100 µM (inactive); in [6], > 100 µM. In addition, the GI50 in [7], in [8], in assay [9], in assay [10], in assay [11] and in [12] was > 100 µM (inactive) each time. Also, the GI50 in [13], in assay [14], in [15], in assay [16], in assay [17] and in assay [18] was > 100 µM (inactive) in each case. The GI50 in assay [19] and in assay [20] was > 100 µM (inactive) in each case.
Turning to `COc1nc2c(N3CCCC3)nc(N3CCNCC3)nc2nc1NCc1ccccc1`, the GI50 was 1.33 µM (inactive) in [1]; 1.98 µM (inactive) in [2]; 2.38 µM (inactive) in assay [3]; 1.58 µM (inactive) in [4]; 1.05 µM (active) in assay [5]; 1.72 µM in assay [6]. Moreover, the GI50 in assay [7] is 0.855 µM (active); in assay [8], 1.67 µM (inactive); in [9] it was 1.47 µM (inactive); in assay [10], 1.9 µM (inactive); in [11] it was 2.16 µM (inactive); in [12] it was 1.95 µM (inactive). In addition, the GI50 in assay [13] was 0.755 µM (active); in [14], 2.83 µM (inactive); in [15], 1.28 µM (inactive); in assay [16], 1.74 µM (inactive); in assay [17], 2.03 µM (inactive); in assay [18], 1.71 µM (inactive). For the same molecule, the GI50 in assay [19] was 1.76 µM (inactive); in assay [20], 1.74 µM (inactive).
As for `COc1ccc(Nc2nc(N)c(C(=O)c3c[nH]c4ccccc34)s2)cc1`, the GI50 in assay [1] was 2.15 µM (inactive); in assay [2] it was 5.12 µM (inactive); in assay [3], 2.18 µM (inactive); in assay [4], 2.16 µM (inactive); in [5] it was 0.92 µM (active); in assay [6] it was 0.433 µM. Further, the GI50 in assay [7] is 8.02 µM (inactive); in assay [8], 0.397 µM (active); in assay [9], 2.01 µM (inactive); in [10], 0.478 µM (active); in [11] it was 3.4 µM (inactive); in assay [12] it was 0.942 µM (active). Besides, the GI50 in assay [13] is 0.745 µM (active); in assay [14] it was 2.36 µM (inactive); in assay [15] it was 2.03 µM (inactive); in [16], 0.5 µM (active); in assay [17], 3.61 µM (inactive); in assay [18], 2.82 µM (inactive). Besides, the values for the GI50 in assay [19] and in assay [20] were 5.56 µM (inactive) and 7.85 µM (inactive), respectively.
As to `CC1(C)OC2OC(COC(=O)C(c3ccccc3)c3ccccc3)C3OC(C)(C)OC3C2O1` (stereo not given), the GI50 in assay [1] was 24.7 µM (inactive); in [2], 29.7 µM (inactive); in assay [3], > 10 µM (inactive); in assay [4], 17.1 µM (inactive); in [5], > 10 µM (inactive); in assay [6], 6.73 µM. Besides, the GI50 in assay [7] is > 10 µM (inactive); in assay [8] it was 4.29 µM (inactive); in [9], 9.68 µM (inactive); in [10] it was 5.02 µM (inactive); in assay [11] it was 20.1 µM (inactive); in assay [12] it was 4.84 µM (inactive). Also, the GI50 in assay [13] was > 10 µM (inactive); in assay [14], 53 µM (inactive); in [15] it was 12.3 µM (inactive); in assay [16], 10.7 µM (inactive); in [17], 90.2 µM (inactive); in assay [18], 66.7 µM (inactive). Besides, the GI50 in assay [19] and in assay [20] was > 10 µM (inactive) each time.
For the molecule `Cn1c(=O)c2nc3sc4c(n3c2n(C)c1=O)C(=O)c1ccccc1C4=O`, the GI50 in assay [1] is > 68.1 µM (inactive); in [2], > 32.4 µM (inactive); in [3], > 78.9 µM (inactive); in assay [4], 17.6 µM (inactive); in assay [5], > 54.8 µM (inactive); in [6], > 59.6 µM. Besides, the GI50 in [7] is > 38.9 µM (inactive); in assay [8], 63.2 µM (inactive); in [9], > 30.9 µM (inactive); in assay [10] it was 13.5 µM (inactive); in assay [11] it was 57.3 µM (inactive); in [12], > 71.1 µM (inactive). Also, the GI50 is 12.1 µM (inactive) in [13]; > 58.6 µM (inactive) in assay [14]; > 26.5 µM (inactive) in assay [15]; > 72.3 µM (inactive) in [16]; > 69.2 µM (inactive) in assay [17]; > 44.1 µM (inactive) in [18]. Moreover, the GI50 in assay [19] was > 100 µM (inactive); in [20], > 88.9 µM (inactive).
`CC1(C)[C@H](C(=O)O)N2C(=O)[C@@H](NS(=O)(=O)c3ccc([N+](=O)[O-])cc3)[C@H]2S1(=O)=O`: the GI50 is > 100 µM (inactive) in assay [1]; > 100 µM (inactive) in assay [2]; > 100 µM (inactive) in [3]; > 100 µM (inactive) in [4]; > 100 µM (inactive) in assay [5]; > 100 µM in assay [6]. Further, the GI50 in [7], in [8], in assay [9], in assay [10], in assay [11] and in assay [12] was > 100 µM (inactive) throughout. In addition, the GI50 in assay [13], in [14], in assay [15], in assay [16], in [17] and in [18] was > 100 µM (inactive) each time. For the same molecule, the GI50 in assay [19] and in [20] was > 100 µM (inactive) each time.
